Reference: US20050250752A1, “Cembranoids with chemopreventive activity” (priority 2002, published 2005)

Tests used:
[1] = test system: Epstein-Barr virus early antigen (EBV-EA) of Raji cells induced by tumor promoter (TPA); test: Inhibition of EBV-EA activation induced by TPA in Raji cells; type: cell-based; conditions: TPA 32 pmol, Raji cells, 48 h
Experimental: (§1) The inhibition of EBV-EA activation was assayed using Raji cells (virus non-producer type). The indicator cells (Raji, 1×10^6/ml) were incubated at 37° C. for 48 h in 1 ml of medium containing n-butyric acid (4 mmol), TPA(12-O-tetradecanoylphorbol 13-acetate)(32 pmol=20 ng in 2 μl DMSO) as inducer and various amounts of test compounds in 5 μl DMSO. Smears were made from the cell suspension, and the activated cells, which were stained by EBV-EA positive serum from nasopharygeal carcinoma patients were detected by an indirect immunofluorescence technique. For each compound, assays were performed in triplicate. The average EBV-EA induction of the test compounds was expressed as a relative ratio to the control experiment (100%), which was carried out only with n-butyric acid plus TPA. The viability of treated Raji cells was assayed by the Trypan Blue staining method.

Raji cells = test: Viability of treated Raji cells (Trypan Blue staining); type: cell-based
Experimental: as §1

[2] = test system: papillomas (mouse skin carcinogenesis induced by DMBA/TPA); test: Two-stage mouse skin carcinogenesis model induced by DMBA/TPA; type: in vivo, mouse (female ICR); conditions: topical 85 nm 1 hour before TPA, ICR mice
Experimental: In the two-stage mouse skin carcinogenesis model induced by DMBA/TPA, the animals (specific pathogen-free female ICR, 6 weeks old) were divided into 5 groups, 15 mice each. The back of each mouse was shaved with surgical clippers, and the mice were topically treated with DMBA (100 μg, 390 nmol) in acetone (0.1 ml) as an initiation treatment. For the positive control group, 1 week after initiation with DMBA, mice were promoted by the application with TPA (1 μg, 1.7 nmol) in acetone (0.1 ml) twice a week. The other four groups received a topical application of each of the sarcophine semi-synthetic derivatives (85 nm) 1 hour before application of the tumor promoter. The incidence of papillomas was observed weekly for 20 weeks. The percentage of mice bearing papillomas and the average number of papillomas per mouse were recorded.

[3] = x 1000 mol ratio/TPA (32 nmol/mL)

## 13S-hydroxysarcophine [Compound 4]
[1]; x 10 mol ratio/TPA
  EBV-EA induction, percentage relative to the positive control value (100%): 100%
[1]; x 100 mol ratio/TPA
  EBV-EA induction, percentage relative to the positive control value (100%): 81.3%
[1]; x 500 mol ratio/TPA
  EBV-EA induction, percentage relative to the positive control value (100%): 62.8%
[1]; [3]
  EBV-EA induction, percentage relative to the positive control value (100%): 14.2%
Raji cells; x 10 mol ratio/TPA
  viability percentage of Raji cells (indicator cells): > 80%
Raji cells; x 100 mol ratio/TPA
  viability percentage of Raji cells (indicator cells): > 80%
Raji cells; x 500 mol ratio/TPA
  viability percentage of Raji cells (indicator cells): > 80%
Raji cells; [3]
  viability percentage of Raji cells (indicator cells): 60%

## CC1=C2CC/C(C)=C/CC[C@]3(C)O[C@H]3CC/C(C)=C/[C@@H]2OC1=O [Compound 3, Sarcophine, reference compound]
[1]; x 10 mol ratio/TPA
  EBV-EA induction, percentage relative to the positive control value (100%): 100%
[1]; x 100 mol ratio/TPA
  EBV-EA induction, percentage relative to the positive control value (100%): 84.0%
[1]; x 500 mol ratio/TPA
  EBV-EA induction, percentage relative to the positive control value (100%): 67.5%
[1]; [3]
  EBV-EA induction, percentage relative to the positive control value (100%): 19.6%
Raji cells; human, 48 h, 0.32 nmol/mL
  viability percentage of Raji cells (indicator cells): > 80%
Raji cells; human, 48 h, 3.2 nmol/mL
  viability percentage of Raji cells (indicator cells): > 80%
Raji cells; x 500 mol ratio/TPA
  viability percentage of Raji cells (indicator cells): > 80%
Raji cells; [3]
  viability percentage of Raji cells (indicator cells): 60%

## CC1=C2CC/C(C=O)=C/CC[C@]3(C)O[C@H]3CC/C(C)=C/[C@@H]2OC1=O [Compound 6, sarcophine-20-carboxyaldehyde]
[1]; x 10 mol ratio/TPA
  EBV-EA induction, percentage relative to the positive control value (100%): 96.0%
[1]; x 100 mol ratio/TPA
  EBV-EA induction, percentage relative to the positive control value (100%): 78.2%
[1]; x 500 mol ratio/TPA
  EBV-EA induction, percentage relative to the positive control value (100%): 60.8%
[1]; [3]
  EBV-EA induction, percentage relative to the positive control value (100%): 12.7%
Raji cells; x 10 mol ratio/TPA
  viability percentage of Raji cells (indicator cells): > 80%
Raji cells; x 100 mol ratio/TPA
  viability percentage of Raji cells (indicator cells): > 80%
Raji cells; x 500 mol ratio/TPA
  viability percentage of Raji cells (indicator cells): > 80%
Raji cells; [3]
  viability percentage of Raji cells (indicator cells): 60%

## C/C(CO)=C1\CC/C(C)=C/CCC2(C)OC2CC/C(C)=C/C1O (stereo not drawn) [Compound 10]
[1]; x 10 mol ratio/TPA
  EBV-EA induction, percentage relative to the positive control value (100%): 94.1%
[1]; x 100 mol ratio/TPA
  EBV-EA induction, percentage relative to the positive control value (100%): 75.5%
[1]; x 500 mol ratio/TPA
  EBV-EA induction, percentage relative to the positive control value (100%): 57.3%
[1]; [3]
  EBV-EA induction, percentage relative to the positive control value (100%): 9.6%
Raji cells; x 10 mol ratio/TPA
  viability percentage of Raji cells (indicator cells): > 80%
Raji cells; x 100 mol ratio/TPA
  viability percentage of Raji cells (indicator cells): > 80%
Raji cells; x 500 mol ratio/TPA
  viability percentage of Raji cells (indicator cells): > 80%
Raji cells; [3]
  viability percentage of Raji cells (indicator cells): 60%
[2]; week 1 of promotion
  Papilloma Bearer (%): 0.0%
  Papillomas/mouse: 0.0
[2]; week 2 of promotion
  Papilloma Bearer (%): 0.0%
  Papillomas/mouse: 0.0
[2]; week 3 of promotion
  Papilloma Bearer (%): 0.0%
  Papillomas/mouse: 0.0
[2]; week 4 of promotion
  Papilloma Bearer (%): 0.0%
  Papillomas/mouse: 0.0
[2]; week 5 of promotion
  Papilloma Bearer (%): 0.0%
  Papillomas/mouse: 0.0
[2]; week 6 of promotion
  Papilloma Bearer (%): 0.0%
  Papillomas/mouse: 0.0
[2]; week 7 of promotion
  Papilloma Bearer (%): 0.0%
  Papillomas/mouse: 0.0
[2]; week 8 of promotion
  Papilloma Bearer (%): 13.3%
  Papillomas/mouse: 0.5
[2]; week 9 of promotion
  Papilloma Bearer (%): 13.3%
  Papillomas/mouse: 0.9
[2]; week 10 of promotion
  Papilloma Bearer (%): 26.6%
  Papillomas/mouse: 1.3
[2]; week 11 of promotion
  Papilloma Bearer (%): 33.3%
  Papillomas/mouse: 1.8
[2]; week 12 of promotion
  Papilloma Bearer (%): 40.0%
  Papillomas/mouse: 2.1
[2]; week 13 of promotion
  Papilloma Bearer (%): 46.6%
  Papillomas/mouse: 2.3
[2]; week 14 of promotion
  Papilloma Bearer (%): 53.3%
  Papillomas/mouse: 2.5
[2]; week 15 of promotion
  Papilloma Bearer (%): 60.0%
  Papillomas/mouse: 2.7
[2]; week 16 of promotion
  Papilloma Bearer (%): 73.3%
  Papillomas/mouse: 3.1
[2]; week 17 of promotion
  Papilloma Bearer (%): 73.3%
  Papillomas/mouse: 3.6
[2]; week 18 of promotion
  Papilloma Bearer (%): 80.0%
  Papillomas/mouse: 4.0
[2]; week 19 of promotion
  Papilloma Bearer (%): 80.0%
  Papillomas/mouse: 4.6
[2]; week 20 of promotion
  Papilloma Bearer (%): 80.0%
  Papillomas/mouse: 4.8
